US7595395B2, “Gabaergic agents to treat memory deficits” (priority 2005, dated 2009)

Legend:
GABAA/α3 receptors = GABAA/α3 receptors (Homo sapiens, UniProt P18507+P34903); details: Huang et al. 2000, WO 03/082832A2; cited from earlier work
GABAA/α2 receptors = GABAA/α2 receptors (Homo sapiens, UniProt P18507+P47869); details: Huang et al. 2000, WO 03/082832A2; cited from earlier work
GABAA/α5 receptors = GABAA/α5 receptors (Homo sapiens, UniProt P18507+P31644); details: Huang et al. 2000, WO 03/082832A2; cited from earlier work
GABAA/α1 receptors = GABAA/α1 receptors (Homo sapiens, UniProt P14867+P18507); details: Huang et al. 2000, WO 03/082832A2; cited from earlier work
C57B1/6 mice = details: DeLorey et al.; cited from earlier work
[1] = system: GABAA receptor subtypes (alpha 1 to alpha 6 with beta 3 and gamma 2); test: Direct triggering of chloride currents in oocytes, all tested subtypes; type: cell-based; details: no GABA
α6β3γ2 GABAA receptor = α6β3γ2 GABAA receptor (Rattus norvegicus, UniProt P18508+P30191); test: Two-electrode voltage clamp in Xenopus oocytes, α6β3γ2
α1β3γ2 GABAA receptor = α1β3γ2 GABAA receptor (Rattus norvegicus, UniProt P18508+P62813); test: Two-electrode voltage clamp in Xenopus oocytes, α1β3γ2
α2β3γ2 GABAA receptor = α2β3γ2 GABAA receptor (Rattus norvegicus, UniProt P18508+P23576); test: Two-electrode voltage clamp in Xenopus oocytes, α2β3γ2
α4β3γ2 GABAA receptor = α4β3γ2 GABAA receptor (Rattus norvegicus, UniProt P18508+P28471); test: Two-electrode voltage clamp in Xenopus oocytes, α4β3γ2
α5β3γ2 GABAA receptor = α5β3γ2 GABAA receptor (Rattus norvegicus, UniProt P18508+P19969); test: Two-electrode voltage clamp in Xenopus oocytes, α5β3γ2
α3β3γ2 GABAA receptor = α3β3γ2 GABAA receptor (Rattus norvegicus, UniProt P18508+P20236); test: Two-electrode voltage clamp in Xenopus oocytes, α3β3γ2
[2] = system: αxβ3γ2 (α = 1-6) BzR/GABA(A) subtypes; test: Binding across the BzR/GABA(A) subtypes (subtype selectivity in words); design: species or system human and rat
Method: The binding affinity of XLi093 (8) in vitro was determined on α1-6β3γ2 LTK cells and is illustrated in the Scheme as shown in FIG. 2
The affinity of all ligands at the 6 major recombinant GABAA/BzR subtypes was measured by competition for [^3H]Ro15-1788 binding to HEK-T cells expressing both human and rat GABAA/Bz receptors of composition α1β2γ2 (α1), α2β2γ2 (α2), α3β2γ2 (α3), α4β2γ2 (α4), α5β2γ2 (α5) and α6β2γ2 (α6). It is well known that the β2 and β3 subunits can be interchanged with no effect on Bz ligand affinity or efficacy. […] These studies are similar to those performed in the laboratory of Bryan Roth who has already expressed the receptors employing the work of Kucken et. al. and Gray et. al.
In brief, for membrane preparations, the cells were scraped on to the ice and diluted into 5 mL of phosphate buffered saline (pH=7.40) and cells pelleted by centrifugation for 5 min. at 4° C. The pellet was resuspended in 1 mL of 50 mM Tris-acetate buffer (pH 7.4) and centrifuged at 18,000 g for 20 min. […] The membranes were harvested in polyethyleneimine-pretreated Whatman GF/C filters and after drying and addition of scintillation cocktail, counted in a scintillation counter. […]

[3] = biological target: T1, α5β3γ2 benzodiazepine receptor GABA(A) isoform (UniProt P18507+P31644); test: Radioligand competition binding, α5β3γ2 BzR/GABA(A) isoform; design: rows headed: Ki at α5β3γ2 subtypes; other: text; α1-6β3γ2 LTK cells; species or system human and rat; details: read-out: Ki at α5β3γ2 subtypes; α1-6β3γ2 LTK cells
T1 sequence (P18507 1-475): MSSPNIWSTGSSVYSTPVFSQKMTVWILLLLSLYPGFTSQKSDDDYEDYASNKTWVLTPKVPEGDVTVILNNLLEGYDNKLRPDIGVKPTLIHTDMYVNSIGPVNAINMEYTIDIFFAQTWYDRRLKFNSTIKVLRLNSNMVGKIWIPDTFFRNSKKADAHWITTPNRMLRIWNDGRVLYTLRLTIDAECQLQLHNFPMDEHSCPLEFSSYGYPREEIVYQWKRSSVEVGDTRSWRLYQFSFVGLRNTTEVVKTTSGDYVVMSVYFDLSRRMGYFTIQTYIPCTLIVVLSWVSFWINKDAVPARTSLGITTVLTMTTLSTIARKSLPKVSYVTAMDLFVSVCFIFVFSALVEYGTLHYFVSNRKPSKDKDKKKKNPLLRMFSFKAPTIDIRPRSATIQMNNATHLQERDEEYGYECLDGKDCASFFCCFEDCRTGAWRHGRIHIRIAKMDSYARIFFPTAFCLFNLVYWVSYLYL
T1 sequence (P31644 1-462): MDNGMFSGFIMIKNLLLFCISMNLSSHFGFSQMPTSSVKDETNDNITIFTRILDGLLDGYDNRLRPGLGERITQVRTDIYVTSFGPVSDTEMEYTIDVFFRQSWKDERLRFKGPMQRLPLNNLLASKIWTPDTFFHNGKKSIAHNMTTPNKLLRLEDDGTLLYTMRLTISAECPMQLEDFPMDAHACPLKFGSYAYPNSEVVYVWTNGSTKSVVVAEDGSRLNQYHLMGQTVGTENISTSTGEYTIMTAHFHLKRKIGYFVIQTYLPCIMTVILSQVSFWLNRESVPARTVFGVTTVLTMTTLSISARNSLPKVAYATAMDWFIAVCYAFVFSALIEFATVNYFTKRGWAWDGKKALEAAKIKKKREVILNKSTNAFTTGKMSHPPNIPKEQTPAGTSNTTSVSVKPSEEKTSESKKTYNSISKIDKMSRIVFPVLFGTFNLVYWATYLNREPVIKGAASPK

[4] = Crossing of the blood brain barrier; details: in vivo
C57BL/6J mice = test: Titrating delayed matching-to-position schedule; type: in vivo
Method: In regard to cognition, the effect of systemic administration of subtype selective agents on short term memory was determined in white Carneau pigeons. Administration of drug was intramuscularly and the titrating matching-to-sample schedule of reinforcement was used. […] In addition, C57BL/6J mice were used to look at the mean delay achieved in the titrating delayed matching-to-position schedule (doses, ip).

α2β3γ2 GABAA receptor, sequence (P23576 29-451): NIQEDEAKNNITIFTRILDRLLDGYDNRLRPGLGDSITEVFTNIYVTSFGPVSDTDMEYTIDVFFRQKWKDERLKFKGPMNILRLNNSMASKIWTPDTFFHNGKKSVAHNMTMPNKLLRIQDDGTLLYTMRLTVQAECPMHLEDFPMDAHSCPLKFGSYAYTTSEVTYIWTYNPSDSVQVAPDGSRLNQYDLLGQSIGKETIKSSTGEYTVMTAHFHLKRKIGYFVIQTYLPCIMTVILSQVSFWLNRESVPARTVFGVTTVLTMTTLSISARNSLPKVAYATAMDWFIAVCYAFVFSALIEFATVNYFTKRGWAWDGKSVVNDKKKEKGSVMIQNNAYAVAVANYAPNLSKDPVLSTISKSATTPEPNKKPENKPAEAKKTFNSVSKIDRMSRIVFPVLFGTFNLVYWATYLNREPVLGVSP
α2β3γ2 GABAA receptor, sequence (P63079 26-473 partner): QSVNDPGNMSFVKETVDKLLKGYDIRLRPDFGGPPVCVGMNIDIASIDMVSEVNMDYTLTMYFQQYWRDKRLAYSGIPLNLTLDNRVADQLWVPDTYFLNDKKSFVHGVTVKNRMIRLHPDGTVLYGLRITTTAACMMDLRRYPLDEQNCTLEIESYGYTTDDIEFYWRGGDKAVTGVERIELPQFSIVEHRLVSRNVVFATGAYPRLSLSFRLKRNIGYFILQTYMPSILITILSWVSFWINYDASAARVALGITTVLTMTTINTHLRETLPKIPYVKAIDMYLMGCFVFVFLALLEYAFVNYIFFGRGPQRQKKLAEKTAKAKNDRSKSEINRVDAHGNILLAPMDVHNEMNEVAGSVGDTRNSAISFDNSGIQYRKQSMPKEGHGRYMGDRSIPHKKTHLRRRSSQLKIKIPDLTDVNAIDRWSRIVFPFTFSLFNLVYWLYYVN
α2β3γ2 GABAA receptor, sequence (P18508 39-466): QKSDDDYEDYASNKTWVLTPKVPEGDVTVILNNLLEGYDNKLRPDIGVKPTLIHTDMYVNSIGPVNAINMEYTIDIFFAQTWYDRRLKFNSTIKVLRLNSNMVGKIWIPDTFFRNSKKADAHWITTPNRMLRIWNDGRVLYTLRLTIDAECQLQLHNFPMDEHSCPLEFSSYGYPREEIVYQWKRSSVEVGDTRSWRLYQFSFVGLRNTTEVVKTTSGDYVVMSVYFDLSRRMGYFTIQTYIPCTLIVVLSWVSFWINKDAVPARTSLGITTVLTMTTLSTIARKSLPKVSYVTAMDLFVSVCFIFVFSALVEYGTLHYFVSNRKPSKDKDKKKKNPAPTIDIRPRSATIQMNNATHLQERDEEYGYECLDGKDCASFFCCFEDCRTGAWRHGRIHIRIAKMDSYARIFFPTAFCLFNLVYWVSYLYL
α5β3γ2 GABAA receptor, sequence (P19969 26-464): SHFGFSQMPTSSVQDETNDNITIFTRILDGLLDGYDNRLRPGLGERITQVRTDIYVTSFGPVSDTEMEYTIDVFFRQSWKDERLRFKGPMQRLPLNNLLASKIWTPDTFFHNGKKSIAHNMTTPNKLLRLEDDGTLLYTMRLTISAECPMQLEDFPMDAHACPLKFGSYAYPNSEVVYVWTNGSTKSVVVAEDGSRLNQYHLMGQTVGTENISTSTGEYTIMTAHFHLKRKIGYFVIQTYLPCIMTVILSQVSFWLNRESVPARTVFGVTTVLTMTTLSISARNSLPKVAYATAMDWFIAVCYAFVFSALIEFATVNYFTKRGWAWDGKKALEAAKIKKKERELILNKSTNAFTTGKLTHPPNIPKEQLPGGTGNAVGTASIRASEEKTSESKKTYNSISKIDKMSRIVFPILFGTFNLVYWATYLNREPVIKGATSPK
α5β3γ2 GABAA receptor, sequence (P63079 26-473 partner): as the sequence (P63079 26-473 partner) above
α5β3γ2 GABAA receptor, sequence (P18508 39-466): as the sequence (P18508 39-466) above
α1β3γ2 GABAA receptor, sequence (P62813 28-455): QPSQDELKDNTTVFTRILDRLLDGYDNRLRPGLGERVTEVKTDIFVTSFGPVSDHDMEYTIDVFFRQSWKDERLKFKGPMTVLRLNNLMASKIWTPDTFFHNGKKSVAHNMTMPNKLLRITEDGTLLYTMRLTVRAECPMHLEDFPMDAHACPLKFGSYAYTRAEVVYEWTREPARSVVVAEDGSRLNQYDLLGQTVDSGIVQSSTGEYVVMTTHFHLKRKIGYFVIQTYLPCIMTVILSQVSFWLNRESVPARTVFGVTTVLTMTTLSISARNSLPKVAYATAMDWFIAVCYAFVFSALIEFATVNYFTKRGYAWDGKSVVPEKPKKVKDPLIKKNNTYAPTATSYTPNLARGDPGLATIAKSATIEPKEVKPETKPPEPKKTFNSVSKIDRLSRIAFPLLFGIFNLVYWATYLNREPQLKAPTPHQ
α1β3γ2 GABAA receptor, sequence (P63079 26-473 partner): as the sequence (P63079 26-473 partner) above
α1β3γ2 GABAA receptor, sequence (P18508 39-466): as the sequence (P18508 39-466) above
α3β3γ2 GABAA receptor, sequence (P20236 29-493): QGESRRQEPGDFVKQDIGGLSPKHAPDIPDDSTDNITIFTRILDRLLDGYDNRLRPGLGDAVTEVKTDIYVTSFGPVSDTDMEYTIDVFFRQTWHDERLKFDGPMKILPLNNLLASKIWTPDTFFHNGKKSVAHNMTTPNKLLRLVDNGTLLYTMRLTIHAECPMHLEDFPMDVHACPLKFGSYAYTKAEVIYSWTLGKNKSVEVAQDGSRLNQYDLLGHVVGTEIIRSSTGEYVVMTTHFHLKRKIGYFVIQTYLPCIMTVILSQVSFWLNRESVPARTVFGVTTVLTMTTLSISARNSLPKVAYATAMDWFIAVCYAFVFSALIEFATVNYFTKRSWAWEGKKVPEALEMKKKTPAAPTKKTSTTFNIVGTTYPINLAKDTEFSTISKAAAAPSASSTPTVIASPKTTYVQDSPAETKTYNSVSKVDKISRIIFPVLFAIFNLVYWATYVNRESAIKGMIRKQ
α3β3γ2 GABAA receptor, sequence (P63079 26-473 partner): as the sequence (P63079 26-473 partner) above
α3β3γ2 GABAA receptor, sequence (P18508 39-466): as the sequence (P18508 39-466) above
α6β3γ2 GABAA receptor, sequence (P30191 20-453): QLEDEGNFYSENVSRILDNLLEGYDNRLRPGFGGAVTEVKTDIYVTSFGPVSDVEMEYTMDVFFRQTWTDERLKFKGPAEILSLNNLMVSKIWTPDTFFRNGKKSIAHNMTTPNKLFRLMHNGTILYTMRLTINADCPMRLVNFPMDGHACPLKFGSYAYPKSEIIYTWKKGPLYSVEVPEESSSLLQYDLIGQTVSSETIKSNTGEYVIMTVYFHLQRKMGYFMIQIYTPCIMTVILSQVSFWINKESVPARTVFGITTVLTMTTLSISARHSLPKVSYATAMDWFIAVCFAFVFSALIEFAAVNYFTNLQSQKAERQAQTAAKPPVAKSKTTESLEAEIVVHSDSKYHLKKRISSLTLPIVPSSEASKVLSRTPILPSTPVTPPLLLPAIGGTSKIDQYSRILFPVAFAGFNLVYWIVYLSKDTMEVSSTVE
α6β3γ2 GABAA receptor, sequence (P63079 26-473 partner): as the sequence (P63079 26-473 partner) above
α6β3γ2 GABAA receptor, sequence (P18508 39-466): as the sequence (P18508 39-466) above
α4β3γ2 GABAA receptor, sequence (P28471 36-552): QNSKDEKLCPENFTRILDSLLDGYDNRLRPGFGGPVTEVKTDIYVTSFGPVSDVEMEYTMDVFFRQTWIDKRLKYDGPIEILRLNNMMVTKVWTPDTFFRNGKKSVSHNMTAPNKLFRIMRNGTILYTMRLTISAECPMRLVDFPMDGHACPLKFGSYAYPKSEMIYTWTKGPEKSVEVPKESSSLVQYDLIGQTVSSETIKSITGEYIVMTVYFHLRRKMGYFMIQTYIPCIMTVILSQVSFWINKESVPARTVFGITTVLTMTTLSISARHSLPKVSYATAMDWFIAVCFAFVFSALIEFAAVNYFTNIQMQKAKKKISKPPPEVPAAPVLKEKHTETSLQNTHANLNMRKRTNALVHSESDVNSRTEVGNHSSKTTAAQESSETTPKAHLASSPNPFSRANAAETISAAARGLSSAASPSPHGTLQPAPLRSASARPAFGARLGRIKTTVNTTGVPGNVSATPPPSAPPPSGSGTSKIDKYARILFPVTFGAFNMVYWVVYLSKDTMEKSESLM
α4β3γ2 GABAA receptor, sequence (P63079 26-473 partner): as the sequence (P63079 26-473 partner) above
α4β3γ2 GABAA receptor, sequence (P18508 39-466): as the sequence (P18508 39-466) above
GABAA/α2 receptors, sequence (P47869 29-451, one chain of several): as the sequence (P23576 29-451) above, with S88L, P174A, G330A counted along it
GABAA/α2 receptors, sequence (P28472 26-473 partner, one chain of several): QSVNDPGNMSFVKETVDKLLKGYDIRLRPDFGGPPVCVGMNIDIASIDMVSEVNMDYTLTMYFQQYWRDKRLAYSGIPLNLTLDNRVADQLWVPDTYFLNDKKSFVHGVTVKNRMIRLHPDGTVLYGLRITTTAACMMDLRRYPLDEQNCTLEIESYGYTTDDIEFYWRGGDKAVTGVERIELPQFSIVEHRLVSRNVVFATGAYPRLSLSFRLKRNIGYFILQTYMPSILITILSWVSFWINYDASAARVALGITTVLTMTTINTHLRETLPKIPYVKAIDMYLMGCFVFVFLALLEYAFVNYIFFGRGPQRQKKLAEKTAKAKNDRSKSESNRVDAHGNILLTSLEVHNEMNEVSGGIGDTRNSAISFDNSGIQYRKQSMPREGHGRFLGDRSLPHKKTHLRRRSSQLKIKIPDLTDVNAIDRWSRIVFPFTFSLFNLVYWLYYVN
GABAA/α5 receptors, sequence (P28472 26-473 partner, one chain of several): as above

C#Cc1ccc2c(c1)C(c1ccccc1)=NCC(=O)N2C [QH-ii-066]
Ki (GABAA/α3 receptors): < 0.05 µM
Ki (GABAA/α2 receptors): < 0.05 µM
Ki (GABAA/α5 receptors): < 0.01 µM
Ki (GABAA/α1 receptors): > 0.07 µM

CCOC(=O)c1ncn2c1CN(C)C(=O)c1cc(CC)ccc1-2 [RY10, Ethyl 8-Ethyl-5,6-dihydro-5-methyl-6-oxo-4H-imidazo[1,5a][1,4]benzodiazepine-3-carboxylate]
reversal of scopolamine-induced memory impairment (in words) (C57B1/6 mice): potently reversed scopolamine-induced memory impairment

C#Cc1ccc2c(c1)C(=O)N(C)Cc1c(C(=O)OC(C)(C)C)ncn1-2 [RY024]
triggering of chloride currents (in words) ([1]; concentrations up to 1 μM): did not trigger chloride currents
Estimated maximum modulation ± SD (α6β3γ2 GABAA receptor; GABA EC20, α6β3γ2, extrapolated by curve-fit): +35.2 ± 1.5%
efficacy / modulation of GABA elicited currents at α6 (in words) (α6β3γ2 GABAA receptor; oocytes): weakly stimulated
Estimated maximum modulation ± SD (α1β3γ2 GABAA receptor; GABA EC20, α1β3γ2, extrapolated by curve-fit): −31.0±2.5%
efficacy / modulation of GABA elicited currents at α1 (in words) (α1β3γ2 GABAA receptor; oocytes): reduced GABA elicited currents in a concentration dependent manner
Estimated maximum modulation ± SD (α2β3γ2 GABAA receptor; GABA EC20, α2β3γ2, extrapolated by curve-fit): −20.7±1.2%
efficacy / modulation of GABA elicited currents at α2 (in words) (α2β3γ2 GABAA receptor; oocytes): reduced GABA elicited currents in a concentration dependent manner
Estimated maximum modulation ± SD (α4β3γ2 GABAA receptor; GABA EC20, α4β3γ2, extrapolated by curve-fit): +43.0 ± 15.9%
efficacy / modulation of GABA elicited currents at α4 (in words) (α4β3γ2 GABAA receptor; oocytes): weakly stimulated
Estimated maximum modulation ± SD (α5β3γ2 GABAA receptor; GABA EC20, α5β3γ2, extrapolated by curve-fit): −40.4±0.8%
efficacy / modulation of GABA elicited currents at α5 (in words) (α5β3γ2 GABAA receptor; oocytes): reduced GABA elicited currents in a concentration dependent manner
EC50 lower for α5 containing receptors than for α1 and α2 (α5β3γ2 GABAA receptor; reduction of GABA elicited currents): ~10 fold
reduction of the stimulation by 30 nM Diazepam (α3β3γ2 GABAA receptor; 1 μM compound, α3 containing receptors, GABA EC3): 96.3±4.7%
Estimated maximum modulation ± SD (α3β3γ2 GABAA receptor; GABA EC20, α3β3γ2, extrapolated by curve-fit): −3.3±2.1%
efficacy / modulation of GABA elicited currents at α3 (in words) (α3β3γ2 GABAA receptor; oocytes): no apparent modulation

C#Cc1ccc2c(c1)C(=O)N(C)Cc1c(C(=O)OCCCOC(=O)c3ncn4c3CN(C)C(=O)c3cc(C#C)ccc3-4)ncn1-2 [XLi-093, 1,3-Bis(8-acetyleno-5,6-dihydro-5-methyl-6-oxo-4H-imidazo[1,5a][1,4]-benzodiaze-pine-3-carboxy)propyl diester]
triggering of chloride currents (in words) ([1]; up to a concentration of 1 nM): did not trigger chloride currents
affinity at other BzR/GABA(A) subtypes than α5 (in words) [2]: little or no affinity
Ki [3]: 0.015 µM
modulation of GABA induced chloride flux (in words) (α1β3γ2 GABAA receptor; 1 uM, α1β3γ2): did not modulate
influence on diazepam stimulation of GABA-induced current (in words) (α1β3γ2 GABAA receptor; 1 μM, α1β3γ2): only marginally influenced
crossing of the blood brain barrier (in words) [4]: does cross the blood brain barrier
modulation of GABA induced chloride flux (in words) (α2β3γ2 GABAA receptor; 1 uM, α2β3γ2): did not modulate
influence on diazepam stimulation of GABA-induced current (in words) (α2β3γ2 GABAA receptor; 1 μM, α2β3γ2): only marginally influenced
performance / mean delay under titrating delayed matching to position schedule (in words) (C57BL/6J mice): does indeed enhance performance
modulation of GABA induced chloride flux (in words) (α5β3γ2 GABAA receptor; 1 uM, α5β3γ2): very slightly inhibited currents
influence on diazepam stimulation of GABA-induced current (in words) (α5β3γ2 GABAA receptor; 1 μM, α5β3γ2): shifted the diazepam dose response curve to the right
inhibition of diazepam-stimulated currents (in words) (α5β3γ2 GABAA receptor; α5β3γ2 receptors): dose dependently and completely inhibit
modulation of GABA induced chloride flux (in words) (α3β3γ2 GABAA receptor; 1 uM, α3β3γ2): did not modulate
influence on diazepam stimulation of GABA-induced current (in words) (α3β3γ2 GABAA receptor; 1 μM, α3β3γ2): only marginally influenced
